According to ChEMBL document CHEMBL3585342, “Exploring the isoform selectivity of TGX-221 related pyrido[1,2-a]pyrimidinone-based Class IA PI 3-kinase inhibitors: synthesis, biological evaluation and molecular modelling” (Bioorg Med Chem, 2015):

Experiments:
[1] = target: Phosphatidylinositol 4,5-bisphosphate 3-kinase catalytic subunit beta isoform (Homo sapiens, UniProt P42338); type: cell-based, Sf9
Description: Inhibition of N-terminal His-tagged human p110beta expressed in Sf9 cells co-expressing p85alpha regulatory subunit using phosphatidylinositol substrate and [gamma-33P]-ATP by basic thin layer chromatography technique based lipid kinase assay

[2] = target: T1, Phosphatidylinositol 4,5-bisphosphate 3-kinase catalytic subunit delta isoform (Homo sapiens, UniProt O00329); type: cell-based, Sf9
T1 sequence (O00329 whole entry): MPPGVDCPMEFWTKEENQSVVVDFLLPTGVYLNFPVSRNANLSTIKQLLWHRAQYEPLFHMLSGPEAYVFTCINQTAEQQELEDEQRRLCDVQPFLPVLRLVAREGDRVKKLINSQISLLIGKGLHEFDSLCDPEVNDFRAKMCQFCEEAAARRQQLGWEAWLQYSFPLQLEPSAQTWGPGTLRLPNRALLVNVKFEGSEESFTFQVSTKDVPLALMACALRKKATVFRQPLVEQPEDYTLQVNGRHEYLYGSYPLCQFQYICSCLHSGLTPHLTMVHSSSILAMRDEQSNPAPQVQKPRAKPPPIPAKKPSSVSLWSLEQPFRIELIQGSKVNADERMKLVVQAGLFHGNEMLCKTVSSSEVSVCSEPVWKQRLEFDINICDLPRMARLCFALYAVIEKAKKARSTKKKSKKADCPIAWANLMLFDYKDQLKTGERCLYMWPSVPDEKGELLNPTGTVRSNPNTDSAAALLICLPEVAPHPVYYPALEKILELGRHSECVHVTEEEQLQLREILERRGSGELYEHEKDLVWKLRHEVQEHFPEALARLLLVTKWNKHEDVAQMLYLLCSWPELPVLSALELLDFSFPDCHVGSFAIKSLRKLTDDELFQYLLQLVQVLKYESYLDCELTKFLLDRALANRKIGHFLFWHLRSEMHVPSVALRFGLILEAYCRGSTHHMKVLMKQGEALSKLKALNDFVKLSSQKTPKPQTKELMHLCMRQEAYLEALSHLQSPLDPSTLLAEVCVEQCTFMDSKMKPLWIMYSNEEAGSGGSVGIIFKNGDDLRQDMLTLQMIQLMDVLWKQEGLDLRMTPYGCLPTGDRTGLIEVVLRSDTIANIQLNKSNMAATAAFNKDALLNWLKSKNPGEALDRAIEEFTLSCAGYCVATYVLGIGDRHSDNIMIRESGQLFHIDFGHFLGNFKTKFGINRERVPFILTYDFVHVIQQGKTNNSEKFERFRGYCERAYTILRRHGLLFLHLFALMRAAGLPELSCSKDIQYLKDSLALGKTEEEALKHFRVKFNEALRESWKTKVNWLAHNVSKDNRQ
Description: Inhibition of N-terminal His-tagged human p110delta expressed in Sf9 cells co-expressing p85alpha regulatory subunit using phosphatidylinositol substrate and [gamma-33P]-ATP by basic thin layer chromatography technique based lipid kinase assay

[3] = Inhibition of cell proliferation of human NZB5 cells containing wild-type p110alpha gene incubated for 5 days by [3H]thymidine incorporation assay; type: functional, cell-based
[4] = target: Phosphatidylinositol 4,5-bisphosphate 3-kinase catalytic subunit alpha isoform (Homo sapiens, UniProt P42336); type: cell-based, Sf9
Description: Inhibition of N-terminal His-tagged human p110alpha expressed in Sf9 cells co-expressing p85alpha regulatory subunit using phosphatidylinositol substrate and [gamma-33P]-ATP by basic thin layer chromatography technique based lipid kinase assay

[5] = Inhibition of cell proliferation of human NZOV9 cells containing wild-type p53 protein and p110alpha Y1021C mutant incubated for 5 days by [3H]thymidine incorporation assay; type: functional, cell-based

Chain of Phosphatidylinositol 4,5-bisphosphate 3-kinase catalytic subunit alpha isoform (P42336 whole entry, canonical isoform): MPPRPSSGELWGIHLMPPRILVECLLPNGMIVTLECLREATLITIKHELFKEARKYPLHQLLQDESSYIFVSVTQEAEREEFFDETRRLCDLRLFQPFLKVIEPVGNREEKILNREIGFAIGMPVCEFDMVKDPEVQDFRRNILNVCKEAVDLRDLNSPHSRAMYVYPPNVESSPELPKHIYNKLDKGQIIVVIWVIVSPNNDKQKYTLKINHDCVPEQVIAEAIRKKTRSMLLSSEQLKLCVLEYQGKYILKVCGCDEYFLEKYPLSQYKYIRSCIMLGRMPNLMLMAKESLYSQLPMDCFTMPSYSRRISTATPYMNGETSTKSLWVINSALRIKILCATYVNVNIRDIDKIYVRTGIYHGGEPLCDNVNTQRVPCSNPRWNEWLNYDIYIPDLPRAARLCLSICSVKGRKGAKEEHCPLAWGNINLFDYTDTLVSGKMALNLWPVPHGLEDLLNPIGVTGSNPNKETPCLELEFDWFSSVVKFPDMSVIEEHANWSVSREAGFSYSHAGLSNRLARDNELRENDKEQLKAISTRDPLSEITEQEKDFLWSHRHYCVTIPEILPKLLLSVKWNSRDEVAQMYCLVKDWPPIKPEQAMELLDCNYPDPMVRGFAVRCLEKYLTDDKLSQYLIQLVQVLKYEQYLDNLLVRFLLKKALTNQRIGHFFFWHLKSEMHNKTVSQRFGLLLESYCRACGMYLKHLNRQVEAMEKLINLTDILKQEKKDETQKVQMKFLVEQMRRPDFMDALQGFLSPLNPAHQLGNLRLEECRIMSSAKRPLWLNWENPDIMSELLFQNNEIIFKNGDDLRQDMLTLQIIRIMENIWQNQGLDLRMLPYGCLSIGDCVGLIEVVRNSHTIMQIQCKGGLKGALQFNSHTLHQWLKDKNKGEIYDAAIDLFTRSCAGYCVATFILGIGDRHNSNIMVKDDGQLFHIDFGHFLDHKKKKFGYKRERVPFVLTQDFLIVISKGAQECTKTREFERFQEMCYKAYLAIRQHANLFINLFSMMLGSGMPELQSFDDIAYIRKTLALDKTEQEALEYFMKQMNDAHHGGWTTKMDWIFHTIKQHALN
Chain of Phosphatidylinositol 4,5-bisphosphate 3-kinase catalytic subunit beta isoform (P42338 whole entry, canonical isoform): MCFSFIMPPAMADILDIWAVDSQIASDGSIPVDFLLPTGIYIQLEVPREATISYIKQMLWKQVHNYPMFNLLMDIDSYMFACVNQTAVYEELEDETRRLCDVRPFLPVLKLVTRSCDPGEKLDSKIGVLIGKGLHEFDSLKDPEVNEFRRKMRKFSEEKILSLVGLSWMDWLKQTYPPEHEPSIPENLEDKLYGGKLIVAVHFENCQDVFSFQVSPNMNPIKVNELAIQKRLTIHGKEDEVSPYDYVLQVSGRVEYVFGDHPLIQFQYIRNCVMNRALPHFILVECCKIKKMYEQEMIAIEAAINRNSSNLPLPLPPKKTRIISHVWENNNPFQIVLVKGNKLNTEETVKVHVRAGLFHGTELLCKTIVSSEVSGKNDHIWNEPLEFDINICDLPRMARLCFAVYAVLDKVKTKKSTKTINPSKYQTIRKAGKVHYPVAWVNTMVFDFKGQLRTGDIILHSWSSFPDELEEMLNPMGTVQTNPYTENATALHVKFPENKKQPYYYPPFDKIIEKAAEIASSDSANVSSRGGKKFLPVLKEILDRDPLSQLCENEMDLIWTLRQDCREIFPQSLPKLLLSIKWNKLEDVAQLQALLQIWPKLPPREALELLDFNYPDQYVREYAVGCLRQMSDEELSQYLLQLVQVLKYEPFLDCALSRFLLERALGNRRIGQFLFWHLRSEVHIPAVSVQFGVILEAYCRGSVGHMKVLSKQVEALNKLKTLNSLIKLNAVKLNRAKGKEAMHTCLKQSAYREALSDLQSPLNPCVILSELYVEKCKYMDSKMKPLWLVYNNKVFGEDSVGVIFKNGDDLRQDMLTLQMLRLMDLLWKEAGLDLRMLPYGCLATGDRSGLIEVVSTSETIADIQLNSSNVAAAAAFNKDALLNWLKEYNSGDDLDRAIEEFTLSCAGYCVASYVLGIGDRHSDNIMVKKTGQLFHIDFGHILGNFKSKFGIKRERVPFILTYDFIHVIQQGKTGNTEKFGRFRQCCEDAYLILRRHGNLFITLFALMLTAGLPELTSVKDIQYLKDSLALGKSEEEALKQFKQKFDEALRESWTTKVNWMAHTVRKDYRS

Structure (SMILES) | IC50 [1] [µM] | IC50 [2] [µM] | IC50 [3] [µM] | IC50 [4] [µM] | IC50 [5] [µM]
Cc1cc(N[C@H](C)c2ccccc2)c2nc(N3CCOCC3)cc(=O)n2c1 | 2.3 | 0.8 | 0.7 | 2.7 | 0.8
O=c1cc(N2CCOCC2)nc2c(CNc3ccc(Cl)cc3)cccn12 | 0.31 | 1.1 | > 20 | 3.1 | 15
Cc1cc(NCc2ccncc2)c2nc(N3CCOCC3)cc(=O)n2c1 | 4.2 | 0.71 | 14 | 4.9 | 14
O=c1cc(N2CCOCC2)nc2c(CS(=O)(=O)c3ccccc3)cccn12 | 4.8 | > 10 | > 20 | > 10 | > 20
Cc1cccc(NC(=O)c2cccn3c(=O)cc(N4CCOCC4)nc23)c1 | 3.9 | 0.3 | 8 | 0.85 | 2.8
N#Cc1ccc(OCc2cccn3c(=O)cc(N4CCOCC4)nc23)cc1 | 1 | 1.5 | > 20 | > 10 | 18
Cc1cc(N(C)c2ccccc2)c2nc(N3CCOCC3)cc(=O)n2c1 | 0.67 | 0.9 | 2 | 4.4 | 5
O=c1cc(N2CCOCC2)nc2c(NS(=O)(=O)c3ccccc3)cccn12 | > 10 | 1.7 | 6 | > 10 | 0.5
Cc1cccc(Nc2cc(C)cn3c(=O)cc(N4CCOCC4)nc23)c1 | 1.2 | 0.47 | 0.9 | > 1 | 0.6
Cc1cc(Nc2ccccc2)c2nc(N3CCOCC3)cc(=O)n2c1 | 0.45 | 0.41 | 1.2 | 1.7 | 3
COc1ccc(OCc2cccn3c(=O)cc(N4CCOCC4)nc23)cc1 | 1.4 | 0.46 | 13 | 1.6 | 14
Cc1cc(Nc2ccccc2C)c2nc(N3CCOCC3)cc(=O)n2c1 | 1.1 | 0.31 |  | 1.5 | 2.2
Cc1ccccc1C(=O)Nc1cccn2c(=O)cc(N3CCOCC3)nc12 | 2.4 | 0.27 | 5.5 | 0.81 | 0.8
Cc1ccc(OCc2cccn3c(=O)cc(N4CCOCC4)nc23)cc1 | 1 | 0.55 | 13 | 2.5 | 8.2
O=c1cc(N2CCOCC2)nc2c(CSc3ccccc3)cccn12 | 0.57 | 0.57 | 7.8 | 1.5 | 6.3
Cc1cccc(C(=O)Nc2cccn3c(=O)cc(N4CCOCC4)nc23)c1 | 1.8 | 0.47 | 6 | 0.57 | 0.8
Cc1cc(N[C@@H](C)c2ccccc2)c2nc(N3CCOCC3)cc(=O)n2c1 | 0.21 | 0.27 | 0.7 | 2.2 | 0.6
Cc1cc(NCc2ccccc2)c2nc(N3CCOCC3)cc(=O)n2c1 | 0.15 | 0.23 | 0.1 | 0.5 | 0.5
O=C(NCc1ccccn1)c1cccn2c(=O)cc(N3CCOCC3)nc12 | > 10 | > 10 | 20 | 4.8 | > 20
O=C(Nc1cccn2c(=O)cc(N3CCOCC3)nc12)c1ccccc1 | 1.8 | 0.22 | 10 | 0.51 | 2.5
O=c1cc(N2CCOCC2)nc2c(COc3ccccc3)cccn12 | 0.23 | 0.47 | 17 | 1.5 | 11
Cc1cccc(NCc2cccn3c(=O)cc(N4CCOCC4)nc23)c1 | 0.24 | 0.81 | 3 | 1.1 | 
O=C(Nc1cccn2c(=O)cc(N3CCOCC3)nc12)Oc1ccccc1 | 9.1 | 1.8 | 7 | 9 | 2.5

Structure (SMILES) | IC50 [1] [µM] | IC50 [2] [µM] | IC50 [3] [µM] | IC50 [4] [µM] | IC50 [5] [µM]
Cc1ccc(NC(=O)c2cccn3c(=O)cc(N4CCOCC4)nc23)cc1 | > 10 | 0.14 | > 20 | 1.2 | > 20
Cc1cc(NCc2ccccn2)c2nc(N3CCOCC3)cc(=O)n2c1 | 0.42 | 0.8 | 2.4 | 2 | 7
CN(Cc1cccn2c(=O)cc(N3CCOCC3)nc12)c1ccccc1 | 0.03 | 0.27 | 12 | 0.79 | 10
O=C(Nc1ccccc1)Nc1cccn2c(=O)cc(N3CCOCC3)nc12 | 0.63 | 0.48 | 7.2 | 0.6 | 2.9
Cc1ccc(NCc2cccn3c(=O)cc(N4CCOCC4)nc23)cc1 | 4.6 | 0.71 | 5.5 | 6.8 | 5.8
Cc1cc(Nc2c(C)cccc2C)c2nc(N3CCOCC3)cc(=O)n2c1 | 2.1 | 0.5 | 1.5 | 3.9 | 1.3
O=c1cc(N2CCOCC2)nc2c(CNc3ccccc3)cccn12 | 0.03 | 0.47 |  | 1.1 | 
O=C(NCc1ccncc1)c1cccn2c(=O)cc(N3CCOCC3)nc12 | > 10 | > 10 | 12 | 6.4 | > 20
Cc1ccc(S(=O)(=O)NCc2cccn3c(=O)cc(N4CCOCC4)nc23)cc1 | 7.4 | 0.6 | 18 | 6.5 | > 20
Cc1ccccc1NC(=O)c1cccn2c(=O)cc(N3CCOCC3)nc12 | 1.5 | 0.53 | > 20 | 1.8 | 11
Cc1ccc(CNc2cc(C)cn3c(=O)cc(N4CCOCC4)nc23)cc1 | 1.8 | 0.64 | 0.4 | 0.9 | > 20
COc1ccc(NCc2cccn3c(=O)cc(N4CCOCC4)nc23)cc1 | 2.1 | 0.24 | 0.34 | 0.35 | 9.6
Cc1cc(NCc2ccccc2C)c2nc(N3CCOCC3)cc(=O)n2c1 | 0.02 |  | 1.5 |  | 5
O=C(Nc1ccccc1)c1cccn2c(=O)cc(N3CCOCC3)nc12 | 3.6 | 0.15 | 2 | 0.49 | 7
Cc1ccccc1NCc1cccn2c(=O)cc(N3CCOCC3)nc12 | 0.02 | 0.47 |  | 1.8 | 
Cc1cc(C(C)Nc2ccccc2)c2nc(N3CCOCC3)cc(=O)n2c1 (racemic) |  | 0.14 | 2.8 | 1 | 1.2
Cc1cc(C(C)N(C)c2ccccc2)c2nc(N3CCOCC3)cc(=O)n2c1 (racemic) | 0.02 | 0.22 |  | 1.5 | 
Cc1cccc(CNc2cc(C)cn3c(=O)cc(N4CCOCC4)nc23)c1 | 0.13 | 0.2 | 0.4 | 0.4 | 1.3
Cc1ccc(C(=O)Nc2cccn3c(=O)cc(N4CCOCC4)nc23)cc1 | 1.9 | 0.03 | 0.9 | 1.36 | 0.8
Cc1cc(NCc2cccnc2)c2nc(N3CCOCC3)cc(=O)n2c1 | 0.59 | 0.45 | 8.2 | > 10 | 7.9
Cc1ccc(Nc2cc(C)cn3c(=O)cc(N4CCOCC4)nc23)cc1 | 3.2 | 1 | 1 | 2.9 | 1.6
O=C(NCc1cccnc1)c1cccn2c(=O)cc(N3CCOCC3)nc12 | > 10 | > 10 | 18 | 6.5 | > 20
